Consider one compound from patent US20040068006A1, “Method for preventing acute renal failure” (Critical Therapeutics, Inc., priority 2001, published 2004).

This assay relates to sepsis-induced acute renal failure. As to the kind of experiment: Cecal ligation puncture (CLP) sepsis-induced acute renal failure in aged mice. Type of assay: in vivo, mouse. The note with it: for HPLC creatinine: mean±SE. As for the experimental part:
Animal care followed NIH criteria for the care and use of laboratory animals in research. Young (7-8 weeks) and aged (42-44 weeks) male C57BL/6 mice [National Institutes of Health (NIH), Frederick, Md.] had free access to water and chow (NIH-07) Rodent chow, Zeigler Bros., Gardners, Pa.) before and after surgery.
Aged mice were anesthetized with 100 mg/kg ketamine, 10 mg/kg xylazine, and 1 mg/kg acepromazine IM. After laparotomy, a 5-0 silk ligature was placed 5 mm from the cecal tip. The cecum was punctured twice with a 21-gauge needle and gently squeezed to express a 1 mm column of fecal material. In sham operated animals, the cecum was located, but neither ligated nor punctured. The abdominal incision was closed in two layers with 6-0 nylon sutures. After surgery, one ml of pre-warmed normal saline was given IP. All animals received a broad spectrum antibiotic (imipenem/cilastatin; 25 mg/kg SC), then 1.5 ml of 3/4 saline was administered at 6 and 18 hr after surgery by SC injection. At the time of sacrifice, blood was collected from abdominal aorta for measurement of blood chemistries. The kidneys were harvested for histological and mechanistic studies.
Survival after surgery was assessed every 6 hr within the first 48 hr and then every 8 hr for 4 days. Antibiotic injection and fluid resuscitation were started 6 hr after CLP by SC injection, and then repeated every 12 hr for 4 days.
Animals received 0.4 ml of Ringers lactate (RL) [130 mM Na+, 4 mM K+, 2.7 mM Ca+, 109 mM Cl^−, and 28 mM lactate] or a similar volume of freshly-made Ringers ethyl pyruvate (EP) where EP (Sigma) was substituted for sodium lactate. A single dose was injected IP at 0, 6, or 12 hr after CLP surgery.
Serum levels of blood urea nitrogen (BUN), aspartate transaminase (AST), alanine transaminase (ALT), amylase, creatine kinase (CK) and lactate dehydrogenase (LDH) were measured using an autoanalyzer (Hitachi 917, Boehringer Mannheim, Indianapolis, MN). Serum creatinine were measured by a picric acid-based colorimetric kinetic autoanalyzer (Astra 8 autoanalyzer; Beckman Instruments, Fullerton, Calif.). Serum […] was also measured by high-performance liquid chromatography (HPLC) Johns et al., B Biomed. Sci. Appl. 759:343 (2001)). Acetonitrile was added to serum, centrifuged, and the supernatant fraction was dried, resuspended in 5 mM sodium acetate pH 5.1, and chromatrographed isocratically on a PRP-X200 cation exchange column (Hamilton, Reno Nev.) and detected by UV absorbance at 234 nm (Agilent Technologies, Palo Alto, Calif.).
10% Formalin-fixed and paraffin-embedded kidney sections were stained with periodic acid-Schiff reagent (PAS) or naphthol AS-D chloroacetate esterase (Sigma; St. Louis, Mo.). Histological changes in the cortex and in the outer stripe of the outer medulla (OSOM) were assessed by quantitative measurements of tissue damage. Tubular damage was defined as tubular epithelial swelling, loss of brush border, vacuolar degeneration, necrotic tubules, cast formation, and desquamation. The degree of kidney damage was estimated at 400× magnification using 5 randomly selected fields for each animal by the following criteria: 0, normal; 1, areas of damage <25% of tubules; 2, damage involving 25-50% of tubules, 3, damage involving 50 to 75% of tubules; 4, 75-100% of the area being affected.
All data are expressed as means±SE. Differences between groups were examined for statistical significance by ANOVA with a multiple comparison correction (StatView 4.5, Berkeley, Calif.; or SigmaStat 2.0, SPSS, San Rafael, Calif.). A P value <0.05 was accepted as statistically significant.

Bounds are passed on as bounds.

Take `CCOC(=O)C(C)=O` [EP, ethyl pyruvate]: the “tubular damage in cortex and OSOM” value (EP at 0, 6 or 12 hr after CLP, measured at 24 hr) is reported as “significantly reduced the tubular damage”. In addition, the HPLC creatinine reads like this: (higher dose (40 mg/kg) EP, single IP dose delayed until 6 hr after surgery) 0.13 ± 0.01 mg/dL; (higher dose (40 mg/kg) EP, single IP dose delayed until 12 hr after surgery) 0.17 ± 0.03 mg/dL; (single IP dose 8 mg/kg EP after CLP surgery (0 hr), RL vehicle 0.33±0.07 mg/dl) 0.17 ± 0.02 mg/dL; (single IP dose 40 mg/kg EP after CLP surgery (0 hr), RL vehicle 0.33±0.07 mg/dl) 0.14 ± 0.02 mg/dL. Moreover, the “renal injury as measured by BUN or HPLC creatinine” value (single dose of either 8 or 40 mg/kg EP after surgery, vs. RL) is on record as “significantly prevented the renal injury”. The acute renal failure result (summary statement referring to Example 1) was “inhibits acute renal failure”. In addition, the “therapeutic window for sepsis-induced acute renal failure” value (treatment start after CLP surgery) is not below 12 h. Moreover, the “amount of protection for tubular injury score” value (without much change with delayed treatment (up to 12 hr)) is 60-80%.
